Test [1] concerns the target T1, Enoyl-[acyl-carrier-protein] reductase [NADH] (Mycobacterium tuberculosis (strain ATCC 25618 / H37Rv), UniProt P9WGR1).
T1 sequence (P9WGR1 whole entry): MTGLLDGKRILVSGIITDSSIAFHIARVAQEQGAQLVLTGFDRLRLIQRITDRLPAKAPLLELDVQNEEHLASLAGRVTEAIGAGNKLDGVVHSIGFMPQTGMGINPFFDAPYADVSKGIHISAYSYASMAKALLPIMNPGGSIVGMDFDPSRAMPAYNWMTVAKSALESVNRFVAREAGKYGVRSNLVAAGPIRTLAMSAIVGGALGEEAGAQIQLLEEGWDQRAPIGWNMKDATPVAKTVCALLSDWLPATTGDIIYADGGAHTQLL
Briefly: Enoyl-CoA Reductase Inhibition Assay. The settings on record: pH 6.8; 22 °C. The procedure:
The assay measured the NADH-dependent catalysis of a DD-CoA substrate as a decrease in 340 nm absorbance resulting from conversion of NADH to NAD. The absorbance OD readings were taken on a microreader. The IC50 values were determined using at least eight concentrations, with each concentration assayed in triplicate under saturating substrate conditions. The values were calculated from plots of enzyme activity versus the log of the inhibitor concentration using the GraFit IC50 four-parameter fit software.

Test [2] concerns the target T1, Enoyl-[acyl-carrier-protein] reductase [NADH]. Briefly: Measurement of Inhibition Constants. The settings on record: pH 6.8; 22 °C. The procedure: Inhibition constants (Ki) were calculated by determining the kcat and Km (DDCoA) values at several fixed inhibitor concentrations. The inhibition data were analyzed using the standard equation for uncompetitive inhibition. For compounds with Ki values in the low nanomolar range, initial velocities were determined at a fixed substrate concentration and the data were fit to the equation: vi/v0 = (Km + S)/(Km + S[1 + I/ Ki]). Where vi and v0 are the initial velocities in the presence and absence of inhibitor. […] Data fitting was performed using Grafit 4.0 (Erithacus Software Ltd.).

Among the data in BindingDB's records for doi:10.1021/cb0500042 (Suny Stony Brook, 2006) are IC50 and Ki values, retold here.

As usually defined, the IC50 is the midpoint of a concentration-inhibition curve. Low readings indicate inhibition by little substance, high ones a need for much substance. What is called Ki is a dissociation constant, usually derived from enzyme kinetics or from competition with a known ligand. Read a low Ki as a stronger hold on the target. For `CCCCCCCCCCCCCCc1ccc(Oc2ccccc2)c(O)c1` [2-phenoxy-5-tetradecylphenol], half-maximal inhibition in test [1] (IC50) was put at 150 nM. Also, the affinity in test [2] corresponds to a Ki of 30.3 nM.
As to `NC(=O)C1=CN([C@@H]2O[C@H](CO[P@@](=O)(O)O[P@@](=O)(O)OC[C@H]3O[C@@H](n4cnc5c(N)ncnc54)[C@H](O)[C@@H]3O)[C@@H](O)[C@H]2O)C=C[C@@H]1C(=O)c1ccncc1` [[[(2R,3S,4R,5R)-5-(6-aminopurin-9-yl)-3,4-dihydroxy-oxolan-2-yl]methoxy-hydroxy-phosphoryl]oxy-[[(2R,3S,4R,5R)-5-[(4S)-3-carbamoyl-4-(pyridine-4-carbonyl)-4H-pyridin-1-yl]-3,4-dihydroxy-oxolan-2-yl]methoxy]phosphinic acid], the affinity in test [2] corresponds to a Ki of 0.75 nM. This lies in the sub-nanomolar range.
On the same count and under the same terms, under `CCCCCCCCc1ccc(Oc2ccccc2)c(O)c1` [5-Octyl-2-phenoxy-phenol] stands 1.1 nM.
On to `CCCCCCc1ccc(Oc2ccccc2)c(O)c1` [5-hexyl-2-phenoxyphenol], for which, in test [1], half-maximal inhibition (IC50) was put at 11 nM. Besides, affinity in test [2] was put at a Ki of 9.4 nM.
As for `CCCCCc1ccc(Oc2ccccc2)c(O)c1` [5-pentyl-2-phenoxylphenol], in test [2], the affinity, expressed as Ki, was 11.8 nM.
